Source: patent publication US10273241B2 (President and Fellows of Harvard College, priority 2013, dated 2019)
Where two headings read alike, the source gives them in different places.

Assays:
MV4;11 = test: Cell growth assay, MV4;11 AML cell line; type: cell-based, human
Protocol: (§1) For all other cell lines, compounds were serially diluted in medium and dispensed in triplicate in 96-well plates (0.1% DMSO final for assay) followed by the addition of exponentially growing cells at densities ranging from 5,000 to 30,000 cells/well. Cells were also seeded into 2 additional control wells containing vehicle (0.1% DMSO). […] To determine the estimated cell number in each well, cells that were counted in the control well were diluted 3-fold for an 8-point dilution series, and transferred to 384-well plates in duplicate, 20 μL per well. Cells in all other wells were diluted 4-fold and transferred to 384-well plates in duplicate, 20 μL per well. 20 μL of CellTiter-Glo (Promega) was subsequently added to all wells and luminescence was detected using a SPECTRAmax M3. The control well dilution series was fit to a linear regression and used as a standard for calculating the estimated cell number for each well. For days 7 and 10, total estimated cell number represents the split-adjusted theoretical cell number.

MOLM-14 = test: Cell growth assay, MOLM-14 AML cell line; type: cell-based, human
Protocol: as §1

K562 = test: Cell growth assay, K562 cell line; type: cell-based, human; settings: day 10, lack of activity is taken as evidence of on-target selectivity
Protocol: (§2) For all other cell lines, compounds were serially diluted in medium and dispensed in triplicate in 96-well plates (0.1% DMSO final for assay) followed by the addition of exponentially growing cells at densities ranging from 5,000 to 30,000 cells/well. Cells were also seeded into 2 additional control wells containing vehicle (0.1% DMSO). After 3 days, the number of viable cells in one of the control wells was counted by hemocytometer or MOXI Z (Orflo) and an equal volume of cells for all wells were split-back with fresh vehicle/compounds such that the resulting seeding density for the control well was 5,000-30,000 cells/well, matching the initial seeding density in that well. This procedure was repeated on day 7 and day 10. % growth was calculated as % growth=100×(total estimated cell number in well−day 0 starting cell number)/(total average vehicle estimated cell number−day 0 starting cell number). To determine the estimated cell number in each well, cells that were counted in the control well were diluted 3-fold for an 8-point dilution series, and transferred to 384-well plates in duplicate, 20 μL per well. Cells in all other wells were diluted 4-fold and transferred to 384-well plates in duplicate, 20 μL per well. 20 μL of CellTiter-Glo (Promega) was subsequently added to all wells and luminescence was detected using a SPECTRAmax M3. The control well dilution series was fit to a linear regression and used as a standard for calculating the estimated cell number for each well. For days 7 and 10, total estimated cell number represents the split-adjusted theoretical cell number.

AML cells = test: Comparison with cortistatin A: AML cell growth inhibition and CDK8 kinase inhibition; type: cell-based, human; settings: more potent than cortistatin A
Protocol: as §2, with “The control well dilution series was fit to a linear regression and used as a standard for calculating the estimated cell number for each well. For days 7 and 10, total estimated cell number represents the split-adjusted theoretical cell number.” left out

[1] = Liver microsome assay, metabolite formation; type: in vitro ADME, human; settings: metabolite is compound 24B
[2] = Liver microsome metabolic stability assay; type: in vitro ADME; settings: 1 micromolar, 0.5 mg/ml microsomal protein
Protocol: Test compounds were incubated at 37° C. with liver microsomes pooled from multiple donors at 1 micromolar in the presence of a NADPII regenerating system at 0.5 mg/ml microsomal protein. At 0, 5, 10, 20, 30, and 60 minutes, samples were removed, and mixed with cold acetonitrile containing an internal standard. After protein separation, samples were analyzed by LC/MS/MS for disappearance of the test compound using the ratio of peak area of analyte to internal standard. From the values, the microsome clearance was calculated. Species used were human, Sprague Dawley rat, beagle dog, and CD-1 mouse.

[3] = Human hepatocyte stability assay; type: in vitro ADME; settings: 1 μM
Protocol: Test compounds were incubated in duplicate with cryopreserved hepatocytes at 37° C. The cells were thawed; viable cells counted, and equilibrated according to the supplier's directions. After 30 min equilibration at 37° C. with gentle agitation, the test compounds were added into the cells to give the desired final concentration of 1 μM. The cell suspension was incubated at 37° C. as above. At the indicated times, samples were removed and mixed with an equal volume of ice-cold Stop Solution (acetonitrile containing internal standards). Stopped reactions were incubated at least ten minutes on ice, and an additional volume of water was added. The samples were centrifuged to remove precipitated protein, and the supernatants were analyzed by LC/MS/MS to quantitate the remaining parent. Data were converted to % remaining by dividing by the time zero concentration value. Data were fit to a first-order decay model to determine half-life. From a plot of log (ln) peak area against time, the slope of the line was determined. Subsequently, half-life and intrinsic clearance were calculated using the equations below: Elimination rate constant (k)=(−slope); Half-life (T1/2) min=0.693/k; Intrinsic Clearance (CLint) (ml/min/million cells)=(V×0.693)/T1/2; V=incubation volume ml/number of cells.

[4] = Pharmacokinetic study of cortistatin A in CD-1 mice; type: in vivo, CD-1 mice; settings: for Cmax: mouse, in vivo, ip
Wnt/beta-catenin pathway = test: Wnt/beta-catenin reporter assay (SuperTOPflash luciferase, HEK293STF); type: cell-based; settings: 24 hour treatment with Wnt3A or 10 μM azakenpaullone; read-out: IC50, inhibition of luciferase expression
Protocol: Exponentially growing HEK293STF were plated in triplicate in 96-well plates at a density of 5,000 cells/well in 75 μL. […] Additional triplicate control wells on each plate had media without cells or cells without azakenpaullone. For experiments with Wnt3A conditioned media, after 24 h, compounds were serially diluted in Wnt3A conditioned media as 1× solutions (0.1% DMSO final). Old media was removed from the cells and replaced with the compound/Wnt3A-media. Additional triplicate control wells on each plate had media without cells or cells that were treated with L-conditioned media (no Wnt3A). After 24 h, the CellTiter-Fluor and Steady-Glo assays (Promega) were subsequently performed in series to determine viability and luminescence, respectively, in each well (measurements made on a SPECTRAmax M3, Molecular Devices). Graphs were made in Prism 5 (GraphPad Software, Inc.) with nonlinear regression fit to a sigmoidal dose-response curve (variable slope).

[5] = test system: SET-2 subcutaneous xenograft; test: SET-2 subcutaneous xenograft model; type: in vivo, SCID Beige mice; settings: 0.16 mg kg-1 daily, n=10, P<0.001
Protocol: (§3) Efficacy studies using the MV4;11 xenograft model were performed as previously described. See, e.g., Etchin et al., Leukemia (2013) 27, 66-74. Briefly, 2 million MV4;11 mCLP cells were introduced into 7-week-old female NOD-SCID-IL2Rcγ^null (NSG) mice (The Jackson Laboratory) via tail vein injection. The tumor burden was assessed by bioluminescence imaging (BLI) using an IVIS Spectrum system (Caliper Life Sciences). […] At 30 days post-treatment start date, 3 mice per group were sacrificed and blood counts were obtained using Hemavet 950 F instrument (Drew Scientific) and spleen, femur, and peripheral blood cells were collected and analyzed by flow cytometry (LSR Fortessa, BD Biosciences). The mice and a portion of the spleen were also preserved in bouins for histopathology. Mice were sectioned, paraffin-embedded and stained with hematoxylin and eosin. Survival of the drug-treated mice was measured as the time from initiation of therapy until moribund state. Survival benefit was assessed by Kaplan-Meier analysis. […] 2 h after the last dose, the mice were sacrificed, blood counts were obtained, blood chemistry was analyzed and the mice were fixed with bouins for histopathology. […] Once tumors reached an average size of 80-120 mm^3, the mice were treated with vehicle or 0.16 mg kg^−1 daily for the duration of the study.

MV4;11 AML cells = test: MV4;11 disseminated leukemia mouse model of AML; type: in vivo, NOD-SCID-IL2Rcγnull (NSG) mice; settings: 0.05 and 0.16 mg/kg once daily for 15 days
Protocol: as §3

[6] = test system: MPLW515L-transduced bone marrow; test: Murine model of primary myelofibrosis (MPLW515L); type: in vivo, mice
[7] = Safety testing in healthy CD-1 mice; type: in vivo; settings: 0.16 mg kg-1 once daily for 15 days, 2 hours after last dose
Protocol: as §3

[8] = test system: STAT1 pS727 (CDK8 module kinase activity) in HepG2 cells; test: IFN-γ-stimulated STAT1 S727 phosphorylation, western blot; type: cell-based, human; settings: 1 hour compound then 1 hour IFN-γ; STAT1 pY701 and total STAT1 unaltered
Protocol: CDK8 has been reported to […] interferon gamma-stimulated phosphorylation of STAT1 S727. See, e.g., Bancerek et al., Immunity (2013) 38:250-262. […] The cells were lysed and probed by western blot.
(§4) For STAT1 studies, MOLM-14 cells were treated with vehicle (0.1% DMSO) or compound for 1 h followed by the addition of IFNγ (Life Technologies, PHC4031) for 1 h. Cells were then collected, washed twice with cold PBS and snap frozen in liquid nitrogen. For all Western blotting, whole-cell lysates were prepared in RPA buffer (Sigma-Aldrich, R0278) with phosphatase and protease inhibitor additives (Sigma-Aldrich, P8340, P0044, P5762) and protein concentration was determined by BCA assay (Thermo Scientific, 23225). RIPA extracts were resolved by denaturing polyacrylamide gel electrophoresis (Life Technologies, NuPAGE) and transferred to PVDF membrane (Millipore) using the Mini Trans-Blot system (BioRad). The membranes were probed as recommended by the antibody manufacturers and proteins detected by chemiluminescence using horseradish peroxidase-conjugated secondary antibodies. For SMAD2/3 studies, HaCaT cells were treated as described for STAT1 with the addition of TGFβ1 (R&D Systems) in place of IFNγ.

[9] = test system: SMAD2/3 phosphorylation in HaCat cells; test: TGF-beta-stimulated SMAD2/3 phosphorylation, western blot; type: cell-based; settings: 1 hour compound then 1 hour TGF-beta
Protocol: as §4

BCL2L11 expression = test: BCL2L11 mRNA levels in MV4;11 and MOLM-14 cells; type: cell-based, human; settings: 24 h treatment
[10] = Homo sapiens, MV4-11, 240 h, day 10, cells passaged, fresh compound added on days 3 and 7, read-out: MV 4;11 GI50 day 10
[11] = Homo sapiens, MOLM-14, 240 h, day 10, cells passaged, fresh compound added on days 3 and 7, read-out: MOL M14 G150 day 10

`CN(C)[C@H]1CCC2=CC3=CC[C@]4(C)[C@@H](c5ccc6ccncc6c5)CC[C@H]4C34CC[C@]2(C1)O4` [14B, β-dimethylamine] gave a GI50 (MV4;11; [10]) of 4 nM, a GI50 (MV4;11; Homo sapiens, MV4-11, day 7, fresh compound added on day 3, read-out: MV4;11 GI50 day 7) of 8 nM and a GI50 (MOLM-14; [11]) of 3 nM. For the same molecule, the GI50 (MOLM-14; Homo sapiens, MOLM-14, day 7, fresh compound added on day 3, read-out: MOL M14 GI50 day 7) was 7 nM, the GI50 (K562; Homo sapiens, K562, 240 h) was over 1000 nM and the “potency relative to cortistatin A in cell growth inhibition and in CDK8 kinase inhibition” value (AML cells) was “approximately 2 fold”. For the same molecule, the “metabolism in human liver microsomes” value [1] was “undergoes N-monodemethylation at C3”.
Molecule `C[C@]12CC=C3C=C4CC[C@H]([N+](C)(C)[O-])CC45CC[C@]3(O5)[C@@H]1CC[C@@H]2c1ccc2ccncc2c1` [14BNO, 14B-N-Oxide] has a GI50 (MV4;11; [10]) of 1 nM, a GI50 (MOLM-14; [11]) of 2 nM and a GI50 (K562; Homo sapiens, K562, 240 h) of over 1000 nM. For the same molecule, the “metabolic stability in liver microsomes compared with 14B” value [2] was “increased stability”, the “metabolic stability in liver microsomes compared with 14B” value ([2]; listed as N-oxide of compound 14B) was “improved stability” and the “half-life and clearance rate in hepatocytes” value [3] was “acceptable half-life and clearance rate”.
cortistatin A [CA] gave a GI50 (MV4;11; day 7, fresh compound added on day 3, read-out: MV4;11 GI50 day 7) of 9 nM, a GI50 (MV4;11; day 10, cells passaged, fresh compound added on days 3 and 7, read-out: MV 4;11 GI50 day 10) of 4 nM and a GI50 (MOLM-14; day 7, fresh compound added on day 3, read-out: MOL M14 GI50 day 7) of 9 nM. For the same molecule, the GI50 (MOLM-14; day 10, cells passaged, fresh compound added on days 3 and 7, read-out: MOL M14 G150 day 10) was 5 nM, the GI50 (K562) was over 1000 nM and the “calculated T1/2” value ([4]; 10 mg/kg IP in 10% DMSO/phosphate buffered saline pH6, male CD-1 mice) was 6.06 h. The Cmax ([4]; 1 mg/kg) was 0.762 µM, the Cmax ([4]; 10 mg/kg, pH 6) was 1.4 µM and the “calculated T1/2 between 0.5-2 h” value ([4]; single IP injection 1 mg/kg in 20% HPCD, male CD-1 mice) was 0.55 h. For the same molecule, the IC50 (Wnt/beta-catenin pathway) was 1.5 nM, the tumor growth inhibition [5] was 68% and the “efficacy (bioluminescence, survival, spleen and bone marrow burden)” value (MV4;11 AML cells) was “effective”. The mean body weight (MV4;11 AML cells; n=11) was “did not decrease”, the spleen weights ([6]; 0.31 mg/kg and 0.62 mg/kg i.p. once daily, after 6 doses) was “significant reduction” and the “allele burden (GFP percentage in peripheral blood)” value ([6]; after 4 doses of daily treatment) was “significant reduction”. The “complete blood count (CBC) vs vehicle” value [7] was “no significant differences”, the “inhibition of IFN-γ-stimulated increase in STAT1 pS727” value [8] was “potently inhibited” and the “TGF-beta-stimulated SMAD2/3 phosphorylation” value [9] was “dose-dependently inhibited”. The “mRNA levels of BCL2L11” value (BCL2L11 expression) was “dose-dependently increases”.
